# Measured values taken from US20040077881A1, “$G(d)1-pyrrolines used in pest control” (priority 2001, published 2004).
# Experiments:
# [1] = tested on: caterpillars of the army-worm (Spodoptera frugiperda); assay: Spodoptera frugiperda test; format: in vivo; details: 1000 ppm, cabbage leaves dipped
# Description: (§1) [table] To produce a suitable preparation of active compound, 1 part by weight of active compound is mixed with the stated amounts of solvent and emulsifier, and the concentrate is diluted with emulsifier-containing water to the desired concentration. Cabbage leaves (Brassica oleracea) are treated by being dipped into the preparation of active compound of the desired concentration and are populated with caterpillars of the army-worm (Spodoptera frugiperda) whilst the leaves are still moist. After the desired period of time, the kill in % is determined. 100% means that all caterpillars have been killed; 0% means that none of the caterpillars have been killed.
# [2] = tested on: Amblyomma variegatum or A. hebraeum, nymphs which have sucked themselves full; assay: Nymph ecdysis test on polyphagous ticks; format: in vivo; details: 100 ppm; nymphs immersed for 1 minute; assessed after 4 to 6 weeks
# Description: [table] 20 mg of active compound are dissolved in 1 ml of dimethyl sulphoxide, more dilute concentrations are prepared by dilution with dist. H2O. 10 nymphs which have sucked themselves full are immersed for 1 minute into the preparation of active compound to be tested. The animals are transferred to petri dishes (Ø0 9.5 cm) fitted with filter discs and covered. After the nymphs have remained in a controlled-environment cabinet for 4 to 6 weeks, the effect on ecdysis is determined. 100% means that none of the animals have undergone normal ecdysis. 0% means that all animals have undergone ecdysis.
# [3] = tested on: fruit tree spider mite (Panonychus ulmi); assay: Panonychus test; format: in vivo; details: 200 ppm, plum trees sprayed
# Description: To produce a suitable preparation of active compound, 1 part by weight of active compound is mixed with the stated amounts of solvent and emulsifier, and the concentrate is diluted with emulsifier-containing water to the desired concentration.
# Plum trees (Prunus domestica) of a height of about 30 cm which are heavily infested by all stages of the fruit tree spider mite (Panonychus ulmi) are sprayed with a preparation of active compound of the desired concentration.
# After the desired period of time, the effect in % is determined. 100% means that all spider mites have been killed; 0% means that none of the spider mites have been killed.
# [4] = tested on: Heliothis virescens caterpillars; assay: Heliothis virescens test; format: in vivo; details: 1000 ppm, soyabean shoots dipped
# Description: Solvent: 30 parts by weight of dimethylformamide Emulsifier: 1 part by weight of alkylaryl polyglycol ether To produce a suitable preparation of active compound, 1 part by weight of active compound is mixed with the stated amounts of solvent and emulsifier, and the concentrate is diluted with emulsifier-containing water to the desired concentration. Soyabean shoots (Glycine max) are treated by being dipped into the preparation of active compound of the desired concentration and populated with Heliothis virescens caterpillars whilst the leaves are still moist. After the desired period of time, the kill in % is determined. 100% means that all caterpillars have been killed; 0% means that none of the caterpillars have been killed.
# Lucilia cuprina larvae = assay: Blowfly larvae test / development-inhibitory action; format: in vivo; details: 100 ppm
# Description: [table] 20 mg of active compound are dissolved in 1 ml of dimethyl sulphoxide, more dilute concentrations are prepared by dilution with dist. H2O. About 20 Lucilia cuprina larvae are introduced into a test tube which contains about 1 cm^3 of horsemeat and 0.5 ml of the preparation of active compound to be tested. The activity of the preparation of active compound is determined after 24 and 48 hours. The test tubes are transferred into a beaker whose bottom is covered with sand. After a further 2 days, the test tubes are removed and the pupae are counted. The activity of the preparation of active compound is assessed using the number of flies that have hatched after 1.5 times the development period of an untreated control. 100% means that none of the flies have hatched; 0% means that all of the flies have hatched normally.
# [5] = logP determination by HPLC (EEC directive 79/831 Annex V.A8, reversed-phase C 18); format: physicochemical; details: reversed-phase HPLC column (C 18), pH 2.3, HPLC, reversed-phase column (C 18), 43° C., pH 2.3, 0.1% aqueous phosphoric acid/acetonitrile; read-out: log P
# Description: The stated logP values were determined in accordance with EEC directive 79/831 Annex V.A8 by HPLC (High Performance Liquid Chromatography) using a reversed-phase column (C 18). Temperature: 43° C. In the acidic range, the determination was carried out at pH 2.3 using the mobile phases 0.1% aqueous phosphoric acid and acetonitrile; linear gradient from 10% acetonitrile to 90% acetonitrile.
# [6] = tested on: caterpillars of the army-worm (Spodoptera exigua); assay: Spodoptera exigua test; format: in vivo; details: 1000 ppm, cabbage leaves dipped
# Description: as §1, with “exigua)” for “frugiperda)”
# [7] = tested on: caterpillars of the diamond-back moth (Plutella xylostella); assay: Plutella test; format: in vivo; details: 1000 ppm, cabbage leaves dipped
# Description: as §1, with “diamond-back moth (Plutella xylostella)” for “army-worm (Spodoptera frugiperda)”
smiles,measurement,setting,value
Fc1cccc(F)c1C1=N[C@@H](c2ccc(-c3ccc(OC(F)(F)F)cc3)cc2)C/C1=C\c1ccc(Br)cc1 [drawing 73],Kill rate in % after 7 d,[1],100%
Fc1cccc(F)c1C1=NC(c2ccc(-c3ccc(OC(F)(F)F)cc3)cc2)CC1(Cl)Cl (centres unmarked) [drawing 69],Kill rate in % after 7 d,[1],100%
Fc1cccc(F)c1C1=N[C@@H](c2ccc(-c3ccc(OC(F)(F)F)cc3)cc2)CC1(Cl)Cl [drawing 88],Effect on ecdysis in %,[2],100%
O=S(=O)(Oc1ccc(-c2ccc([C@H]3C[C@H](Cl)C(c4c(F)cccc4F)=N3)cc2)cc1)C(F)(F)F [drawing 55],Kill rate in % after 14 d,[3],100%
Fc1cccc(F)c1C1=NC(c2ccc(-c3ccc(OC(F)(F)F)cc3)cc2)CC1Cl (centres unmarked) [drawing 53],Kill rate in % after 6 d,[4],100%
Fc1cccc(F)c1C1=N[C@@H](c2ccc(-c3ccc(OC(F)(F)F)cc3)cc2)CC1(Cl)Cl [drawing 85],Kill rate in % after 48 h,Lucilia cuprina larvae,100%
"Fc1cccc(F)c1C1=NC(c2ccc(-c3ccc(OC(F)(F)F)cc3)cc2)CC1(Cl)Cl (centres unmarked) [Example 4, 4,4-dichloro-5-(2,6-difluorophenyl)-2-[4′-(trifluoromethoxy)-1,1′-biphenyl-4-yl]-3,4-dihydro-2H-pyrrole]",chromatographic logP,[5],5.92
same,melting point,,60 to 61 °C
Fc1cccc(F)c1C1=N[C@@H](c2ccc(-c3ccc(OC(F)(F)F)cc3)cc2)CC1(Cl)Cl [drawing 68],Kill rate in % after 6 d,[6],100%
O=S(=O)(Oc1ccc(-c2ccc([C@H]3C[C@H](Cl)C(c4c(F)cccc4F)=N3)cc2)cc1)C(F)(F)F [drawing 89],Effect on ecdysis in %,[2],100%
Fc1cccc(F)c1C1=N[C@@H](c2ccc(-c3ccc(OC(F)(F)F)cc3)cc2)CC1(Cl)Cl [drawing 54],Kill rate in % after 6 d,[4],100%
O=S(=O)(Oc1ccc(-c2ccc([C@H]3C[C@H](Cl)C(c4c(F)cccc4F)=N3)cc2)cc1)C(F)(F)F [drawing 86],Kill rate in % after 48 h,Lucilia cuprina larvae,100%
Fc1cccc(F)c1C1=NC(c2ccc(-c3ccc(OC(F)(F)F)cc3)cc2)CC1Cl (centres unmarked) [drawing 65],Kill rate in % after 6 d,[7],100%
Fc1cccc(F)c1C1=N[C@@H](c2ccc(-c3ccc(OC(F)(F)F)cc3)cc2)CC1(Br)Br [drawing 72],Kill rate in % after 7 d,[1],100%
Fc1cccc(F)c1C1=NC(c2ccc(-c3ccc(OC(F)(F)F)cc3)cc2)CC1(Cl)Cl (centres unmarked) [drawing 66],Kill rate in % after 6 d,[6],100%
O=S(=O)(Oc1ccc(-c2ccc([C@H]3C[C@H](Cl)C(c4c(F)cccc4F)=N3)cc2)cc1)C(F)(F)F [drawing 75],Kill rate in % after 7 d,[1],100%
Fc1cccc(F)c1C1=NC(c2ccc(-c3ccc(OC(F)(F)F)cc3)cc2)CC1Cl (centres unmarked) [drawing 70],Kill rate in % after 7 d,[1],100%
Fc1cccc(F)c1C1=NC(c2ccc(-c3ccc(OC(F)(F)F)cc3)cc2)CC1(Cl)Cl (centres unmarked) [drawing 84],Kill rate in % after 48 h,Lucilia cuprina larvae,100%
Fc1cccc(F)c1C1=NC(c2ccc(-c3ccc(OC(F)(F)F)cc3)cc2)CC1(Cl)Cl (centres unmarked) [drawing 87],Effect on ecdysis in %,[2],100%
Fc1cccc(F)c1C1=NC(c2ccc(-c3ccc(OC(F)(F)F)cc3)cc2)CC1(Cl)Cl (centres unmarked) [drawing 52],Kill rate in % after 6 d,[4],100%
Fc1cccc(F)c1C1=NC(c2ccc(-c3ccc(OC(F)(F)F)cc3)cc2)CC1Cl (centres unmarked) [drawing 67],Kill rate in % after 6 d,[6],100%
Fc1cccc(F)c1C1=N[C@@H](c2ccc(-c3ccc(OC(F)(F)F)cc3)cc2)CC1(Cl)Cl [drawing 71],Kill rate in % after 7 d,[1],100%
O=S(=O)(Oc1ccc([C@H]2CC(Br)C(c3c(F)cccc3F)=N2)cc1)C(F)(F)F (some centres unmarked) [drawing 74],Kill rate in % after 7 d,[1],100%
